What was measured:
Type in all cases: cell-based
[1] = system: Fusarium moniliforme; test: Antifungal testing, MIC and MCIC; conditions: comparison table
[2] = system: Aspergillus flavus; test: Antifungal testing, MIC and MCIC; conditions: comparison table
[3] = system: E. coli; conditions: bacterial host; statement in words

| Substance | MIC FMO ([1]; known antimicrobial compounds) [µg/mL] | MIC FMO ([1]; value in parentheses) [µM] | MIC AFL ([2]; known antimicrobial compounds) [µg/mL] | MIC AFL ([2]; value in parentheses) [µM] | toxicity to E. coli [3] |
| --- | --- | --- | --- | --- | --- |
| CMIII | 18.2 | 4.6 | 60 | 15 |  |
| KWCFRVCYRGICYRRCR [tachyplesin, natural tachyplesin, small peptide originally isolated from the hemocytes of the horseshoe crab, Tachypleus tridentatus] | 6.25 | 2.8 | 6.25 | 2.8 | significant toxicity |
| hordothionin | 45 | 9 | 15 | 3 |  |
